Test results as given in patent US9156836B2, “Tricyclic triazole compounds that modulate HSP90 activity” (Synta Pharmaceuticals Corp., priority 2008, dated 2015).

Each compound was assayed on Hsp90 (assay: IC50 of compounds of the invention (Table 2; Her2 degradation Method 2, MV-4-11 cell survival, Cell Counting Kit-8)). Conditions: text calls it IC50 for Her2 degradation; Method 2: MV-4-11 cells, 72 hours; read-out: IC50 of compounds of the invention for inhibition of Hsp90.
Type: cell-based, human
Method: MV-4-11 cells (20,000 cells/well) were cultured in 96-well plates and maintained at 37° C. for several hours. The cells were treated with a compound of the invention or 17AAG (a positive control) at various concentrations and incubated at 37° C. for 72 hours. Cell survival was measured with Cell Counting Kit-8 (Dojindo Laboratories, Cat. # CK04).
Compound NC(=O)c1nnc2n1CCCCc1cc(O)cc(O)c1-2 [Compound 2, 10,12-dihydroxy-5,6,7,8-tetrahydrobenzo[c][1,2,4]triazolo[4,3-a]azocine-3-carboxamide] has an IC50 of 12.2 µM.
With NC(=O)c1nnc2n1C/C=C\Cc1cc(O)cc(O)c1-2 [Compound 3, (Z)-10,12-dihydroxy-5,8-dihydrobenzo[c][1,2,4]triazolo[4,3-a]azocine-3-carboxamide] the IC50 was 17 µM.
With NC(=O)c1nnc2n1CC(O)C(O)Cc1cc(O)cc(O)c1-2 (stereo not drawn) [Compound 4, 6,7,10,12-tetrahydroxy-5,6,7,8-tetrahydrobenzo[c][1,2,4]triazolo[4,3-a]azocine-3-carboxamide] the IC50 was 24.3 µM.
NC(=O)c1nnc2n1CC(Br)C(Br)Cc1cc(O)cc(O)c1-2 (stereo not drawn) [Compound 5, 6,7-dibromo-10,12-dihydroxy-5,6,7,8-tetrahydrobenzo[c][1,2,4]triazolo[4,3-a]azocine-3-carboxamide compound with dibromine (1:1)] gave an IC50 of 23.4 µM.
NC(=O)c1nnc2n1CCCc1cc(O)cc(O)c1-2 [Compound 12, 9,11-dihydroxy-6,7-dihydro-5H-benzo[c][1,2,4]triazolo[4,3-a]azepine-3-carboxamide] was tested, and the IC50 was 87.2 µM.

These compounds were tested on Her2 (assay: Degradation of Her2 in BT-474 cells, Western blot (Method 1)). Conditions: 0.5 μM, overnight.
Type: cell-based, human
Method: Human high-Her2 breast carcinoma BT474 (HTB-20), SK-BR-3 (HTB-30) and MCF-7 breast carcinoma (HTB-22) from American Type Culture Collection, VA, USA were grown in Dulbecco's modified Eagle's medium with 4 mM L-glutamine and antibiotics (100 IU/ml penicillin and 100 ug/ml streptomycine;GibcoBRL). To obtain exponential cell growth, cells were trypsinized, counted and seeded at a cell density of 0.5×10^6 cells/ml regularly, every 3 days. All experiments were performed on day 1 after cell passage.
BT-474 cells are treated with 0.5 μM, 2 μM, or 5 μM of 17AAG (a positive control) or 0.5 μM, 2 μM, or 5 μM of a compound of the invention overnight in DMEM medium. After treatment, each cytoplasmic sample is prepared from 1×10^6 cells by incubation of cell lysis buffer (#9803, cell Signaling Technology) on ice for 10 minutes. The resulting supernatant used as the cytosol fractions is dissolved with sample buffer for SDS-PAGE and run on a SDS-PAGE gel, blotted onto a nitrocellulose membrane by using semi-dry transfer. Non-specific binding to nitrocellulose is blocked with 5% skim milk in TBS with 0.5% Tween at room temperature for 1 hour, then probed with anti-Her2/ErB2 mAb (rabbit IgG, #2242, Cell Signaling) and anti-Tubulin (T9026, Sigma) as housekeeping control protein. […]
C=CCNC1=C2C[C@@H](C)C[C@H](OC)[C@H](O)[C@@H](C)/C=C(\C)[C@H](OC(N)=O)[C@@H](OC)/C=C\C=C(/C)C(=O)NC(=CC1=O)C2=O [Compound 17AAG, 17-allylamino-17-demethoxygeldanamycin] was tested, and the “Degradation of Her2” value was “partial degradation”.
